Assay results from PubChem BioAssay AID1918996 (Molecular Pharmacology Branch, DTP, NCI, 2023).
Values joined by “and” are separate entries in the source; they are usually repeats but may differ in a detail not shown here. Equal values may be shown once. One block for each molecule: values may come before it.

System: 349418-098-R-PDC complex spheroid growth
Experiment: Anticancer human tumor 349418-098-R-PDC patient-derived lung adenocarcinoma cell line growth inhibition [AhR]
Details: for viability, T/C: stronger effect = lower value
From the text: Multicellular complex tumor spheroid response to aryl hydrocarbon receptor antagonists in combination with a variety of drugs and investigational agents in selected tumor cell lines
The current study was undertaken to assess response to aryl hydrocarbon receptor antagonists in combination with standard-of-care drugs and investigational agents in solid tumor complex spheroid models. Complex spheroids include a stromal component modeled by human endothelial cells (HUVEC) and fibroblasts modeled by human mesenchymal stem cells (MSCs). The concentration ranges selected for each drug and investigational agent were based upon clinically achievable concentrations if the clinical Cmax of the agent was known.
Compounds. The drugs and investigational agents: BAY 2416964 (NSC825713), GNF351 (NSC835774), CH-223191 (NSC835775), CPI-455 (NSC825282), aza-TdCyd (NSC777586), decitabine (NSC127716), belinostat (NSC758774), entinostat (NSC756642), pevonedistat (NSC761192), tazemetostat (NSC777109), talazoparib (NSC765396), olaparib (NSC753686), selinexor (NSC780203), nedisertib (M3814, NSC802822), bortezomib (NSC756655), venetoclax (NSC766270), doxorubicin (NSC123127), elimusertib (BAY189344, NSC800525), ceralasertib (AZD6738, NSC777638), TAK-243 (NSC785004), alisertib (NSC759677), etoposide (NSC141540), topotecan (NSC609699), eribulin (NSC707389), gemcitabine (NSC613327), carboplatin (NSC241240), cisplatin (NSC119875), and SN-38 (NSC673596) were obtained from the National Cancer Institute (NCI) Developmental Therapeutics Program Chemical Repository (32). The FDA-approved anticancer drug set is available from the Developmental Therapeutics Program at https://dtp.cancer.gov/organization/dscb/obtaining/available plates.htm. […] The stock solutions were prepared in dimethyl sulfoxide (DMSO, Sigma-Aldrich, St. Louis, MO, cat. D2650), except for the platinum compounds which were prepared in saline (Quality Biological, Gaithersburg, MD, cat. 114-055-101), at 800-fold the tested concentration and stored at -70 degrees C prior to their use. All drugs and investigational agents were tested over a range starting from a high concentration at or near the clinical Cmax and decreasing in half-log increments. If the clinical Cmax for an agent had not been determined, the highest concentration tested was 10 microM (Table 1).
Cell Culture. All cells were maintained in an incubator at 37 degrees C and 5% CO2 with 95% humidity. The PDC lines were cultured according to standard operating procedures established by the NCI PDMR (https://pdmr.cancer.gov). Briefly, all PDCs were thawed and cultured in Matrigel-coated flasks prepared with a working solution of 1X Ham's F-12 nutrient mix, without supplementation (Invitrogen, Waltham, MA, cat. 11765054), 100 U/mL penicillin-streptomycin (Invitrogen, cat. 15140122), and 2.5% Matrigel (Corning Inc., Corning, NY, cat. 354248) for the first three passages. All PDCs were cultured in complete DMEM/F-12 media containing advanced DMEM/F-12 (Invitrogen, cat. 12634028), 4.9% defined fetal bovine serum, heat inactivated (HyClone Laboratories Inc., Logan, UT, cat. SH30070.03HI), 389 ng/mL hydrocortisone (Sigma-Aldrich, cat. H4001), 9.7 ng/mL human EGF recombinant protein (Invitrogen, cat. PHG0313), 23.4 microg/mL adenine (Sigma-Aldrich, cat. A2786), 97.3 U/mL penicillin-streptomycin (Invitrogen, cat. 15140122), 1.9 mM L-glutamine (Invitrogen, cat. 25030081), and 9.7 microM Y-27632 dihydrochloride (Tocris Bioscience, Bristol, United Kingdom, cat. 1254). The PDCs were cultured in complete DMEM/F12 media without 10 microM Y-27632 dihydrochloride for at least two passages prior to the screen. The established cell lines NCI-H1341 and […] were cultured in DMEM/F-12, HEPES (Invitrogen, cat. 11330032), 5% defined fetal bovine serum (HyClone Laboratories Inc., cat. SH30070.03), ITS premix universal culture supplement [insulin (5 microg/mL), transferrin (5 microg/mL), and selenious acid (5 ng/mL)] […]

[1] = curve of first compound, second compound 0.1 µM
[2] = curve of first compound, second compound 0.316 µM
[3] = curve of first compound, second compound 1 µM
[4] = curve of first compound, second compound 3.16 µM
[5] = curve of first compound, second compound 10 µM
[6] = second compound 0.1 µM, first compound 0.0316 µM
[7] = second compound 0.1 µM, first compound 0.1 µM
[8] = second compound 0.1 µM, first compound 0.316 µM
[9] = second compound 0.1 µM, first compound 1 µM
[10] = second compound 0.316 µM, first compound 0.0316 µM
[11] = second compound 0.316 µM, first compound 0.1 µM
[12] = second compound 0.316 µM, first compound 0.316 µM
[13] = second compound 0.316 µM, first compound 1 µM
[14] = second compound 1 µM, first compound 0.0316 µM
[15] = second compound 1 µM, first compound 0.1 µM
[16] = second compound 1 µM, first compound 0.316 µM
[17] = second compound 1 µM, first compound 1 µM
[18] = second compound 3.16 µM, first compound 0.0316 µM
[19] = second compound 3.16 µM, first compound 0.1 µM
[20] = second compound 3.16 µM, first compound 0.316 µM
[21] = second compound 3.16 µM, first compound 1 µM
[22] = second compound 10 µM, first compound 0.0316 µM
[23] = second compound 10 µM, first compound 0.1 µM
[24] = second compound 10 µM, first compound 0.316 µM
[25] = second compound 10 µM, first compound 1 µM
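Also: spheroids exposed to agents for seven days before luminescence viability read.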
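For viability, T/C in this document: spheroids also contain HUVEC endothelial cells and human MSC stroma.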

- IC50 [1]: 105 nM
- IC50 [2]: 157 nM
- IC50 [3]: 65.7 nM
- IC50 [4]: < 31.6 nM
- IC50 [5]: < 31.6 nM
SMILES: COc1cc(Nc2ncc3c(n2)-c2ccc(Cl)cc2C(c2c(F)cccc2OC)=NC3)ccc1C(=O)O + Cc1ccccc1N=Nc1ccc(NC(=O)c2ccnn2C)c(C)c1
- viability, T/C [6]: 70.5%
- viability, T/C [7]: 50.9%
- viability, T/C [8]: 30.5%
- viability, T/C [9]: 30.8%
- viability, T/C (second compound 0.1 µM, first compound 3.16 µM): 33.5%
- viability, T/C (second compound 0.1 µM, first compound 10 µM): 31.1%
- viability, T/C [10]: 64.8%
- viability, T/C [11]: 63%
- viability, T/C [12]: 29.8%
- viability, T/C [13]: 28.5%
- viability, T/C (second compound 0.316 µM, first compound 3.16 µM): 23.4%
- viability, T/C (second compound 0.316 µM, first compound 10 µM): 26%
- viability, T/C [14]: 71.8%
- viability, T/C [15]: 36.6%
- viability, T/C [16]: 34.4%
- viability, T/C [17]: 32.3%
- viability, T/C (second compound 1 µM, first compound 3.16 µM): 30.5%
- viability, T/C (second compound 1 µM, first compound 10 µM): 26.5%
- viability, T/C [18]: 48.7%
- viability, T/C [19]: 38.1%
- viability, T/C [20]: 32.2%
- viability, T/C [21]: 27.1%
- viability, T/C (second compound 3.16 µM, first compound 3.16 µM): 26.8%
- viability, T/C (second compound 3.16 µM, first compound 10 µM): 26.6%
- viability, T/C [22]: 38.9%
- viability, T/C [23]: 29.7%
- viability, T/C [24]: 32.2%
- viability, T/C [25]: 27.1%
- viability, T/C (second compound 10 µM, first compound 3.16 µM): 23.6%
- viability, T/C (second compound 10 µM, first compound 10 µM): 27.1%

- IC50 (curve of compound): 49.6 nM and 21.1 nM and 24 nM
SMILES: O=C(C=Cn1cnc(-c2cc(C(F)(F)F)cc(C(F)(F)F)c2)n1)NNc1cnccn1
- viability, T/C (compound 0.00949 µM): 101% and 61.6% and 69.8%
- viability, T/C (compound 0.03 µM): 59.3% and 45% and 45.2%
- viability, T/C (compound 0.0949 µM): 40.3% and 14.9% and 16.5%
- viability, T/C (compound 0.3 µM): 12.2% and 12.3% and 7.91%
- viability, T/C (compound 0.949 µM): 6.89% and 8.37% and 7.72%
- viability, T/C (compound 3 µM): 4.34% and 6.5% and 7.38%

- IC50 [1]: 135 nM
- IC50 [2]: 63.3 nM
- IC50 [3]: 92.2 nM
- IC50 [4]: 103 nM
- IC50 [5]: 44.6 nM
SMILES: Nc1ncn(C2CC(O)C(CO)O2)c(=O)n1 (configuration not stated) + CC(CO)NC(=O)c1cc(-c2ccc(Cl)cc2)nn(-c2cnn(C)c2)c1=O
- viability, T/C (second compound 0.1 µM, first compound 0.00316 µM): 101%
- viability, T/C (second compound 0.1 µM, first compound 0.01 µM): 90.6%
- viability, T/C [6]: 73.4%
- viability, T/C [7]: 55.2%
- viability, T/C [8]: 36.6%
- viability, T/C [9]: 23.8%
- viability, T/C (second compound 0.316 µM, first compound 0.00316 µM): 108%
- viability, T/C (second compound 0.316 µM, first compound 0.01 µM): 106%
- viability, T/C [10]: 72%
- viability, T/C [11]: 35%
- viability, T/C [12]: 43.1%
- viability, T/C [13]: 25.7%
- viability, T/C (second compound 1 µM, first compound 0.00316 µM): 78.6%
- viability, T/C (second compound 1 µM, first compound 0.01 µM): 67.3%
- viability, T/C [14]: 67.9%
- viability, T/C [15]: 41.6%
- viability, T/C [16]: 43.3%
- viability, T/C [17]: 28.9%
- viability, T/C (second compound 3.16 µM, first compound 0.00316 µM): 55.4%
- viability, T/C (second compound 3.16 µM, first compound 0.01 µM): 64.9%
- viability, T/C [18]: 84.4%
- viability, T/C [19]: 50.6%
- viability, T/C [20]: 30%
- viability, T/C [21]: 26.8%
- viability, T/C (second compound 10 µM, first compound 0.00316 µM): 51.9%
- viability, T/C (second compound 10 µM, first compound 0.01 µM): 63.9%
- viability, T/C [22]: 49.8%
- viability, T/C [23]: 43.2%
- viability, T/C [24]: 24.8%
- viability, T/C [25]: 20.1%
